# From patent US20250388593A1 (MITSUBISHI TANABE PHARMA CORPORATION, priority 2023, published 2025)
# Molecular target: CRBN truncate (318-426) (Homo sapiens (Human), UniProt Q96SW2)
# Experiment: Measurement of molecular interactions using surface plasmon resonance (SPR), Biacore T200
# Format: binding
# Details: 25° C., immobilized CRBN truncate, upper limit of measurement 200 μM
# Method: The instrument used was the Biacore T200 (manufactured by Cytiva). The CRBN truncate (318-426) was obtained by expressing a construct with an Avi-tag added at the C-terminus. The sensor chip used was Sensor Chip SA (manufactured by Cytiva). The CRBN truncate was immobilized using the affinity between SA (streptavidin) on the sensor chip and the Avi-tag. The running buffer was a mixture of 10 mM HEPES pH 7.5, 150 mM NaCl, 1 mM TCEP, 0.005% Tween 20, and 2% DMSO. […] Contact time and dissociation time were set at 60 seconds and 120 seconds, respectively.
# Chain of CRBN truncate (318-426) (Q96SW2 318-426): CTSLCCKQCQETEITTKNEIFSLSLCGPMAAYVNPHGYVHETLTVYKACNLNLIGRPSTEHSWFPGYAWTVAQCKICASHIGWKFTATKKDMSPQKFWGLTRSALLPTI
row,Kd,Molecule
1,≥ 100 µM,"2-(3-Methyl-5-nitro-2-pyridyl)-2,7-diazaspiro[4.6]undecane-6,8-dione [Example 78]"
2,≥ 100 µM,"O=C1NC(=O)[C@@]2(c3ccc(Br)cc3)CC[C@@H]1O2 (racemic) [Example 173, 1-(4-Bromophenyl)-8-oxa-3-azabicyclo [3.2.1]octane-2,4-dione]"
3,< 50 µM,"Cc1sc2c(c1C)C(c1ccc(Cl)cc1)=N[C@@H](CC(=O)NCCCCCCCCNC(=O)/C=C/c1ccc([C@H]3C[C@H](N4C=CCC(=O)NC4=O)C(=O)N3C)cc1)c1nnc(C)n1-2 (relative stereo) [Example 349, (E)-N-[8-[[2-[(9S)-7-(4-chlorophenyl)-4,5,13-trimethyl-3-thia-1,8,11,12-tetrazatricyclo[8.3.0.02,6]trideca-2(6),4,7,10,12-pentaen-9-yl]acetyl]amino]octyl]-3-[4-[(2R*,4S*)-4-(2,4-dioxo-5H-1,3-diazepin-1-yl)-1-methyl-5-oxopyrrolidin-2-yl]phenyl]prop-2-enamide]"
4,50 to 100 µM,"Cn1c(=O)n([C@@H]2CCCC(=O)NC2=O)c2cccc(I)c21 (single isomer, unassigned) [Example 211, 3-(4-Iodo-3-methyl-2-oxobenzimidazol-1-yl) azepane-2,7-dione]"
5,≥ 100 µM,"CC(C)(C)OC(=O)NCc1cn(C2CCCC(=O)NC2=O)nn1 (stereo not drawn) [Example 1, tert-Butyl N-[[1-(2,7-dioxoazepan-3-yl)triazol-4-yl]methyl]carbamate]"
6,≥ 100 µM,"CC(C)(C)OC(=O)N1CCC(c2cn(C3CCCC(=O)NC3=O)nn2)CC1 (stereo not drawn) [Example 2, tert-Butyl 4-[1-(2,7-dioxoazepan-3-yl)triazol-4-yl]piperidine-1-carboxylate]"
7,≥ 100 µM,"CC(C)(C)OC(=O)Nc1ccc(-c2cn(C3CCCC(=O)NC3=O)nn2)cc1 (stereo not drawn) [Example 3, tert-Butyl N-[4-[1-(2,7-dioxoazepan-3-yl)triazol-4-yl]phenyl]carbamate]"
8,≥ 100 µM,"CC(C)(C)OC(=O)Nc1cccc(-c2cn(C3CCCC(=O)NC3=O)nn2)c1 (stereo not drawn) [Example 5, tert-Butyl N-[3-[1-(2,7-dioxoazepan-3-yl)triazol-4-yl]phenyl]carb amate]"
9,50 to 100 µM,"O=C1CCCC2(CCCN(C(=O)c3ccccc3)CCC2)C(=O)N1 [Example 14, 11-Benzoyl-2,11-diazaspiro[6.7]tetradecane-1,3-dione]"
10,≥ 100 µM,"CN(C(=O)c1cccc(-c2ccccc2)c1)C1CCCC(=O)NC1=O (stereo not drawn) [Example 20, N-(2,7-Dioxoazepan-3-yl)-N-methyl-3-phenylbenzamide]"
11,≥ 100 µM,"O=C1CCCC(NC(=O)c2cccc(-c3ccccc3)c2)C(=O)N1 (stereo not drawn) [Example 21, N-(2,7-dioxoazepan-3-yl)-3-phenylbenzamide]"
12,≥ 100 µM,"COC(=O)c1ccc(=O)n(C2CCCC(=O)NC2=O)c1 (stereo not drawn) [Example 26, Methyl 1-(2,7-dioxoazepan-3-yl)-6-oxopyridine-3-carboxylate]"
13,≥ 100 µM,"CN(C1CCCC(=O)NC1=O)S(=O)(=O)c1ccc(CNC(=O)OC(C)(C)C)cc1 (stereo not drawn) [Example 27, tert-Butyl N-[[4-[(2,7-dioxoazepan-3-yl)-methylsulfamoyl]phenyl]methyl]carbamate]"
14,≥ 100 µM,"CC(C)(C)OC(=O)c1ccc(N2CCN(C3CCCC(=O)NC3=O)C(=O)C2)nc1 (stereo not drawn) [Example 30, tert-Butyl 6-[4-(2,7-dioxoazepan-3-yl)-3-oxopiperazin-1-yl]pyridine-3-carboxylate]"
15,≥ 100 µM,"COC(=O)c1ccc(CN2CCC3(CCCC(=O)NC3=O)C2)cc1 (stereo not drawn) [Example 34, Methyl 4-[(6,8-dioxo-2,7-diazaspiro[4.6]undecan-2-yl)methyl]benzoate]"
16,< 50 µM,"COC(=O)c1cc2c(N3CCC4(CCCC(=O)NC4=O)C3)ncnc2n1C (stereo not drawn) [Example 36, Methyl 4-(6,8-dioxo-2,7-diazaspiro[4.6]undecan-2-yl)-7-methyl-pyrrolo[2,3-d]pyrimidine-6-carboxylate]"
17,≥ 100 µM,"Cn1ccc2c(N3CCC4(CCCC(=O)NC4=O)C3)ncnc21 (stereo not drawn) [Example 37, 2-(7-methylpyrrolo[2,3-d]pyrimidin-4-yl)-2,7-diazaspiro[4.6]undecane-6,8-dione]"
18,≥ 100 µM,"O=C1CCCC2(CCN(c3ccc(C(F)(F)F)cn3)C2)C(=O)N1 (stereo not drawn) [Example 38, 2-[5-(trifluoromethyl)-2-pyridyl]-2,7-diazaspiro[4.6]undecane-6,8-dione]"

# More lines, now with the values behind:
row,Molecule,Kd
1,"CN1C(=O)[C@H](N2C=CCC(=O)NC2=O)C[C@H]1c1ccc(/C=C/C(=O)OC(C)(C)C)cc1 (relative stereo) [Example 290, tert-Butyl (E)-3-[4-[(2S*,4R*)-4-(2,4-dioxo-5H-1,3-diazepin-1-yl)-1-methyl-5-oxopyrrolidin-2-yl]phenyl]prop-2-enoate]",≥ 100 µM
2,"Cc1sc2c(c1C)C(c1ccc(Cl)cc1)=N[C@@H](CC(=O)NCCCCCCCCCCC(=O)N1CCC(c3ccc(C45CCC(O4)C(=O)NC5=O)cc3)CC1)c1nnc(C)n1-2 (stereo in doubt) [Example 358, 2-[(9S)-7-(4-chlorophenyl)-4,5,13-trimethyl-3-thia-1,8,11,12-tetraazatricyclo[8.3.0.02,6]trideca-2(6),4,7,10,12-pentaen-9-yl]-N-[11-[4-[4-[(1R*,5R*)-2,4-dioxo-8-oxa-3-azabicyclo[3.2.1]octan-1-yl]phenyl]-1-piperidyl]-11-oxo-undecyl]acetamide]",< 50 µM
3,"CC(C)(C)OC(=O)Nc1ccccc1-c1cn(C2CCCC(=O)NC2=O)nn1 (stereo not drawn) [Example 6, tert-Butyl N-[2-[1-(2,7-dioxoazepan-3-yl)triazol-4-yl]phenyl]carbamate]",≥ 100 µM
4,"CN(C1CCCC(=O)NC1=O)S(=O)(=O)c1ccc(Cl)cc1 (stereo not drawn) [Example 7, 4-Chloro-N-(2,7-dioxoazepan-3-yl)-N-methylbenzenesulfonamide]",≥ 100 µM
5,"O=C1CCCC(NS(=O)(=O)c2ccc(Cl)cc2)C(=O)N1 (stereo not drawn) [Example 8, 4-Chloro-N-(2,7-dioxoazepan-3-yl) benzenesulfonamide]",≥ 100 µM
6,"O=C1CCCC(NS(=O)(=O)c2cccc(Cl)c2)C(=O)N1 (stereo not drawn) [Example 9, 3-Chloro-N-(2,7-dioxoazepan-3-yl) benzenesulfonamide]",≥ 100 µM
7,"CN(C1CCCC(=O)NC1=O)S(=O)(=O)c1cccc(Cl)c1 (stereo not drawn) [Example 10, 3-Chloro-N-(2,7-dioxoazepan-3-yl)-N-methylbenzenesulfonamide]",≥ 100 µM
8,"COC(=O)c1cccc(S(=O)(=O)N(C)C2CCCC(=O)NC2=O)c1 (stereo not drawn) [Example 11, Methyl 3-[(2,7-dioxoazepan-3-yl)-methylsulfamoyl]benzoate]",≥ 100 µM
9,"O=C1COCC2(CCCN(C(=O)c3ccccc3)C2)C(=O)N1 (stereo not drawn) [Example 12-2, 2-Benzoyl-8-oxa-2,11-diazaspiro[5.6]dodecane-10,12-dione]",≥ 100 µM
10,"O=C1COCC2(CCN(C(=O)c3ccccc3)CC2)C(=O)N1 [Example 13-2, 3-benzoyl-8-oxa-3,11-diazaspiro[5.6]dodecane-10,12-dione]",≥ 100 µM
11,"CC(C)(C)OC(=O)c1ccc(N2CCCC3(COCC(=O)NC3=O)C2)nc1 (stereo not drawn) [Example 15, tert-Butyl 6-(10,12-dioxo-8-oxa-2,11-diazaspiro [5.6]dodecan-2-yl) pyridine-3-carboxylate]",≥ 100 µM
12,"CC(C)(C)OC(=O)c1ccc(N2CCC3(CC2)COCC(=O)NC3=O)nc1 [Example 16, tert-Butyl 6-(10,12-dioxo-8-oxa-3,11-diazaspiro [5.6]dodecan-3-yl) pyridine-3-carboxylate]",≥ 100 µM
13,"O=C1CCOC(c2ccccc2)C(=O)N1 (stereo not drawn) [Example 18, 2-Phenyl-1,4-oxazepane-3,5-dione]",≥ 100 µM
14,"O=C1CCOC(c2cccc(Br)c2)C(=O)N1 (stereo not drawn) [Example 19, 2-(3-Bromophenyl)-1,4-oxazepane-3,5-dione]",≥ 100 µM
15,"O=C1COCC(NC(=O)c2cccc(-c3ccccc3)c2)C(=O)N1 (stereo not drawn) [Example 22, N-(3,5-dioxo-1,4-oxazepan-6-yl)-3-phenylbenzamide]",≥ 100 µM
16,"CC(C)(C)OC(=O)N(CC1CCCC(=O)NC1=O)c1ccc(F)cc1 (stereo not drawn) [Example 24, tert-Butyl N-[(2,7-dioxoazepan-3-yl)methyl]-N-(4-fluorophenyl) carbamate]",≥ 100 µM
17,"O=C1CCCC(CNc2ccc(F)cc2)C(=O)N1 (stereo not drawn) [Example 25, 3-[(4-Fluoroanilino)methyl]azepane-2,7-dione]",≥ 100 µM
18,"O=C1CCCC(C(=O)Nc2ccc(F)cc2)C(=O)N1 (stereo not drawn) [Example 28, N-(4-Fluorophenyl)-2,7-dioxoazepane-3-carboxamide]",≥ 100 µM
19,"CC(C)(C)OC(=O)N1CCN(C2CCCC(=O)NC2=O)C(=O)C1 (stereo not drawn) [Example 29-1, tert-Butyl 4-(2,7-dioxoazepan-3-yl)-3-oxopiperazine-1-carboxylate]",≥ 100 µM
20,"CC(C)(C)OC(=O)N1CCN(C2CCCC(=O)NC2=O)C(=O)C1=O (stereo not drawn) [Example 29-2, tert-Butyl 4-(2,7-dioxoazepan-3-yl)-2,3-dioxopiperazine-1-carboxylate]",≥ 100 µM
21,"CC1(CN2C(=O)c3ccccc3C2=O)CCCC(=O)NC1=O (stereo not drawn) [Example 31, 2-[(3-Methyl-2,7-dioxoazepan-3-yl)methyl]isoindole-1,3-dione]",50 to 100 µM
22,"CC(C)(C)OC(=O)c1cnc(N2CCC3(CCCC(=O)NC3=O)C2)nc1 (stereo not drawn) [Example 32, tert-Butyl 2-(6,8-dioxo-2,7-diazaspiro [4.6]undecan-2-yl) pyrimidine-5-carboxylate]",≥ 100 µM
23,"COC(=O)c1cccc(CN2CCC3(CCCC(=O)NC3=O)C2)c1 (stereo not drawn) [Example 33, Methyl 3-[(6,8-dioxo-2,7-diazaspiro[4.6]undecan-2-yl)methyl]benzoate]",≥ 100 µM
24,"CC(C)(C)OC(=O)c1cnc(N2CCC3(CCCC(=O)NC3=O)C2)cn1 (stereo not drawn) [Example 35, tert-Butyl 5-(6,8-dioxo-2,7-diazaspiro[4.6]undecan-2-yl)pyrazine-2-carboxylate]",≥ 100 µM
